According to patent US20080181874A1, “CELL COMPOSITION AND METHOD FOR TREATING CANCER” (priority 2007, published 2008):

Assays:
[1] = system: viable tumor cells from the right chest wall lesion (mammary carcinoma cells); test: In vitro drug response of fresh tumor cells (DISC, MTT and redox assays); type: cell-based, human; set-up: key to ASSAY RESULT: Sensitive: A cancer cell is said to be sensitive to a drug when the drug inhibits the cell growth or proliferation of the cell to a greater degree than is expected for an appropriate control; Resistant: A cancer cell is said to be sensitive to a drug when the drug inhibits the cell growth or proliferation of the cell to a lesser degree than is expected for an appropriate control; settings: for ASSAY RESULT: compared with a database of assays with similar technical characteristics; for ASSAY PREDICTED RESPONSE PROBABILITY: predicted from the assay result; for activity in vitro (in words): summary of the table
Description: An unfixed portion of the tumor was further analyzed for response to several drugs. A specimen consisted of 1 piece of yellow, white, and red tissue, obtained from the right chest wall lesion. The piece was soft and sticky in texture, measured 0.8×1.4 cm, and weighed 0.47 gm. The specimen was minced to individual pieces smaller than one mm with surgical scissors and digested for 1.3 hours with collagenase-DNAse. Viable tumor cells were enriched by Ficoll-diatriozate centrifugation. Cytospin slides were prepared, air-dried, and stained with Fast Green/Hamatoxyline-eosin. On this cytology preparation obtained from mechanically-dissociated, enzyme-digested tissue, there was a collection of somewhat pleomorphic tumor cells, consistent with mammary carcinoma cells. Tumor cells were present as loose cell clusters (60% of total tumor cells) and, less commonly, as discohesive single cells (40% of total tumor cells). The tumor cells measured 22-25 microns in diameter and had N/N+C ratios of 0.6-0.8. […] Nucleoli were variably prominent. There were no cells with large clear globular areas or secretory material within the cytoplasm. There was slight cytoplasmic and nuclear molding. Approximately 40% of the enriched tumor cell fraction consisted of normal-appearing connective tissue cells and inflammatory cells.
Cells were plated for testing in 3 different assay endpoints. In the DISC assay, the entire contents of the cell culture were cytocentrifuged onto permanent microscope slides and differentially stained to allow discrimination of normal and neoplastic cells and living and dead cells. […] The MTT assay measures mitochondrial metabolism in the entire cell culture. The redox assay measures total metabolic activity in the entire cell culture, using the Alamar Blue reagent to index the oxygen reduction potential of the culture medium. Because of the very low yield of viable tumor cells, only a small drug panel could be tested. Additionally, some drugs could be tested only in a single assay system.
At the conclusion of the culture period, there was 10% spontaneous attrition in viable tumor cell numbers. Formazan signal in the MTT assay was moderate, reflective of moderate cell metabolism, and allowing for an MTT assay of good quality. Percentage of tumor cells as a percentage of total viable cells at the conclusion of the culture was approximately 85. DISC and MTT assays were in reasonably good agreement. The overall technical quality of the assays was good, marred only by the low yield of tumor cells, which severely limited the scope of testing.
Results were compared with a database of assays which had similar technical characteristics, as the technical characteristics of these assays influence the in vitro results, along with the intrinsic drug resistance of the tumor cells. By controlling for technical characteristics such as spontaneous cell loss, metabolic signal at the conclusion of the culture, and tumor cell clustering, biological correlations are improved.

[2] = system: patients with very advanced stage IV breast cancer; settings: components of the vaccine regimen, one patient each
Description: Breast cancer patients treated with a composition comprising AKCV-1 cells (administered in conjunction with GM-CSF) were evaluated. […] A small cohort of patients with very advanced stage 1V breast cancer were treated with a vaccine consisting of 10-20×10^6 viable, irradiated tumor cells (AKCV-1) admixed with an equal number of cryopreserved peripheral blood lymphocytes obtained by leukapheresis. Patients were pretreated with low-dose cyclophosphamide 300 mg/m^2 48-72 hrs prior to vaccine and received subcutaneous injections of GM-CSF just prior, and for 8 days after, vaccine inoculation.

| Compound | ASSAY RESULT [1] | ASSAY PREDICTED RESPONSE PROBABILITY [1] | activity in vitro (in words) [1] | Toxicity [2] | best drug in vitro ([1]; ranking among the drugs tested) |
| --- | --- | --- | --- | --- | --- |
| N.N.O=C([O-])C1(C(=O)[O-])CCC1.[Pt+2] [(4HC) Carboplatin, Carboplatin] | Resistant | 5 | poor activity | – | – |
| N.N.[Cl][Pt][Cl] [Cisplatin] | Intermediate | 30 | – | – | – |
| O=P1(N(CCCl)CCCl)NCCCO1 (centres unmarked) [Cyclophosphamide] | Sensitive | 55 | above-average activity | exacerbation of pericardial effusion and atrial fibrillation, which spontaneously resolved | – |
| COc1cccc2c1C(=O)c1c(O)c3c(c(O)c1C2=O)C[C@@](O)(C(=O)CO)C[C@@H]3O[C@H]1C[C@H](N)[C@H](O)[C@H](C)O1 [Doxorubicin] | Intermediate | 30 | – | – | – |
| COc1cc([C@@H]2c3cc4c(cc3[C@@H](O[C@@H]3O[C@@H]5CO[C@@H](C)O[C@H]5[C@H](O)[C@H]3O)[C@H]3COC(=O)[C@H]23)OCO4)cc(OC)c1O [Etoposide] | Sensitive | 55 | above-average activity | – | – |
| O=c1[nH]cc(F)c(=O)[nH]1 [Fluorouracil] | Intermediate | 20 | – | – | – |
| CC(=O)O[C@H]1C(=O)[C@@]2(C)[C@H]([C@H](OC(=O)c3ccccc3)[C@]3(O)C[C@H](OC(=O)[C@H](O)[C@@H](NC(=O)c4ccccc4)c4ccccc4)C(C)=C1C3(C)C)[C@]1(OC(C)=O)CO[C@@H]1C[C@@H]2O [Taxol (Paclitaxel), Paclitaxel] | Sensitive | 62 | above-average activity | – | best drug in vitro |
| CCC1=C[C@@H]2CN(C1)Cc1c([nH]c3ccccc13)[C@@](C(=O)OC)(c1cc3c(cc1OC)N(C)[C@H]1[C@@](O)(C(=O)OC)[C@H](OC(C)=O)[C@]4(CC)C=CCN5CC[C@]31[C@@H]54)C2 [Vinorelbine] | Intermediate | 30 | – | – | – |
| GM-CSF: granulocyte macrophage colony stimulating factor, given as subcutaneous injections | – | – | – | increasing ascites and abdominal discomfort | – |
